pIC50: −log10 of the molar value.

For this experiment, the target named is T1, KRAS G12D::SOS1 binding (Homo sapiens, UniProt Q07889).
T1 construct: purchased Cisbio 63ADK000CB21PEH
T1 sequence (Q07889 1-1333): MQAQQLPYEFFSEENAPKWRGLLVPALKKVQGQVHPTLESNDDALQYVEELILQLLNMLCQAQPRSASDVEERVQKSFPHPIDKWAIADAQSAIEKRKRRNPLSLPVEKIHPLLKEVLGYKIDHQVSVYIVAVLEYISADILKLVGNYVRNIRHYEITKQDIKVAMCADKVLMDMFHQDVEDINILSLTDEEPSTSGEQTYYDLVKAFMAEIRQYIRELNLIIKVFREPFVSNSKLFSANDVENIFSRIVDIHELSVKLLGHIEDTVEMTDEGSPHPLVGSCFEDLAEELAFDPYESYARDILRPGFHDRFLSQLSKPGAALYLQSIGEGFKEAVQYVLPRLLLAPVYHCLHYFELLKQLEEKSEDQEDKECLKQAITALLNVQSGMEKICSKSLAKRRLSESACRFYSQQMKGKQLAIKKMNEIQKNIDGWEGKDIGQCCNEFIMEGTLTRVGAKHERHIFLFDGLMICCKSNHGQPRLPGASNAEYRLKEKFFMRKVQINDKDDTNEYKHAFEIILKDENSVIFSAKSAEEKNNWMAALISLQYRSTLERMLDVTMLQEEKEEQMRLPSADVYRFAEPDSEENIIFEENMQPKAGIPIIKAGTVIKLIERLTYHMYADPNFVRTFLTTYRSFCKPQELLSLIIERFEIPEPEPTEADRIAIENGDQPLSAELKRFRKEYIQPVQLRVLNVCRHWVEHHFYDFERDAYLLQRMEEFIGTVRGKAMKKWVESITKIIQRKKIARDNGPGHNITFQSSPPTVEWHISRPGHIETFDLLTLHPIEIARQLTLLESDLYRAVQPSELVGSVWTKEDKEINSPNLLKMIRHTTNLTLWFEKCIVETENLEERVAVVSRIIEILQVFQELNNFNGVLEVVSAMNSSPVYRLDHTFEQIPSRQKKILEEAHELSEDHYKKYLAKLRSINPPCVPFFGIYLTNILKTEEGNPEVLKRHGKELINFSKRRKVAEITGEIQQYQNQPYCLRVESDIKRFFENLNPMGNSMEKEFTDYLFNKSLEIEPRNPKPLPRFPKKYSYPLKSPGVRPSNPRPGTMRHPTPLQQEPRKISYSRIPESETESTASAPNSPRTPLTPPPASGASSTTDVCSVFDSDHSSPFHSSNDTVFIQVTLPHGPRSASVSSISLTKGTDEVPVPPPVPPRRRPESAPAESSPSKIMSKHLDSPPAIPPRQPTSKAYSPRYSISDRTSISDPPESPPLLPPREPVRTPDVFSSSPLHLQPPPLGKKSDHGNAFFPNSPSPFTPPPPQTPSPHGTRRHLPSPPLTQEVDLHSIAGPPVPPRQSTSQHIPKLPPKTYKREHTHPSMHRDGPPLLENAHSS
The experiment is described as follows: KRAS G12D::SOS1 binding inhibition (KRAS-G12D/SOS1 binding assay kit, Cisbio). Conditions: GTP 10 µM. Here is the method:
The inhibitory effect of the compounds of the present invention on KRAS G12D:: SOS 1 binding was assessed using KRAS-G12D/SOS1 BINDING ASSAY KITS (Cisbio, Cat. No. 63ADK000CB21PEH).
The test compound (10 mM stock solution) was diluted […] to 0.1 mM with 100% DMSO and diluted at a ratio of 1:3 in a 384-well dilution plate for 11 concentrations. 0.1 µL of the gradiently-diluted compound solution was transferred to a 384-well plate using Echo. 2 replicate wells were set for each compound. The solution was centrifuged at 1000 rpm/min for 1 min. 5 µL of 4X KRAS G12D (final concentration 1X) and a GTP solution (final concentration 10 µM, sigma, Cat. No. V900868) were transferred to the 384-well reaction plate. The mixture was centrifuged at 1000 rpm/min for 1 min and incubated at 25 °C for 15 min. 5 µL of a 4X SOS1 solution (final concentration 1X) was transferred to the 384-well reaction plate. The solution was centrifuged at 1000 rpm/min for 1 min and incubated at 25 °C for 45 min. The final concentrations of BAY-293 compound were 10, 3.33, 1.11, 0.37, 0.12, 0.04, 0.014, 0.0046, 0.0015, 0.0005, 0.00017, and 0 µM. The final concentrations of the test compound were 10, 3.33, 1.11, 0.37, 0.12, 0.04, 0.014, 0.0046, 0.0015, 0.0005, 0.00017, and 0 µM. The final concentrations of DMSO were all 0.5%. 10 µL of a 2X assay reagent solution was transferred to the 384-well reaction plate. The solution was centrifuged at 1000 rpm/min for 1 min and incubated at 4 °C for 180 min. An Envision multifunctional microplate reader was used to read at an excitation wavelength of […] and an emission wavelength of 615 nm. The signal intensity of 665/615 ratio was used to characterize the degree of enzyme activity. Data processing: compound IC50 was fitted by Graphpad Prism 8 nonlinear regression equation: Negative control: DMSO
IC50 (half maximal inhibitory concentration) of the compound was obtained using the following nonlinear fitting formula: Y = Bottom + (Top−Bottom)/(1+10^(∧)((LogIC50−X)*HillSlope)) [formula] • X: log value of the concentration of the test compound • Y: inhibition percentage
Bottom is the minimum inhibition percentage, Top is the maximum inhibition percentage, and HillSlope is the Hill slope.
As usually defined, the pIC50 is the negative decadic logarithm of the IC50, by convention in mol/L. A higher pIC50 goes with a low IC50. For the compound `COc1c(=O)n(N2CCOCC2)cc2c(N[C@H](C)c3cccc(C(F)F)c3F)nc(C)nc12` [Example 20, (R)-4-((1-(3-(difluoromethyl)-2-fluorophenyl)ethyl)amino)-8-methoxy-2-methyl-6-morpholinepyrido[4,3-d]pyrimidine-7(6H)-one], the pIC50 is 8.13.

Turning to `[2H]C([2H])([2H])Oc1c(=O)n(C2(CF)CC2)cc2c(N[C@H](C)c3cccc(C(F)F)c3F)nc(C)nc12` [Example 23, (R)-4-((1-(3-(difluoromethyl)-2-fluorophenyl)ethyl)amino)-6-(1-(fluoromethyl)cyclopropyl)-8-(methoxy-d3)-2-methylpyrido[4,3-d]pyrimidine-7(6H)-one], the pIC50 was 8.38.

`Cc1nc(N[C@H](C)c2cccc(C(F)F)c2F)c2cn(C3(CF)CC3)c(=O)c(N3CCOCC3)c2n1` [Example 34, (R)-4-((1-(3-(difluoromethyl)-2-fluorophenyl)ethyl)amino)-6-(1-(fluoromethyl)cyclopropyl)-2-methyl-8-morpholinylpyrido[4,3-d]pyrimidine-7(6H)-one] showed a pIC50 of 8.18.

Turning to `Cc1nc(N[C@H](C)c2cccc(C(F)F)c2F)c2cn(C3(CF)CC3)c(=O)c(N3CCOC[C@@H]3C)c2n1` [Example 40, 4-(((R)-1-(3-(difluoromethyl)-2-fluorophenyl)ethyl)amino)-6-(1-(fluoromethyl)cyclopropyl)-2-methyl-8-((S)-3-methylmorpholine)pyrido[4,3-d]pyrimidine-7(6H)-one], the negative logarithm of the IC50 (pIC50) was 8.42.

For `[2H][C@](C)(Nc1nc(C)nc2c(N3CCOCC3)c(=O)n(C3(CF)CC3)cc12)c1cccc(C(F)F)c1F` [Example 55, (R)-4-((1-(3-(difluoromethyl)-2-fluorophenyl)ethyl-1-d)amino)-6-(1-(fluoromethyl)cyclopropyl)-2-methyl-8-morpholinylpyrido[4,3-d]pyrimidine-7(6H)-one], the pIC50 is 8.20.

(Values after patent publication EP4417607A1, “HETEROCYCLIC COMPOUND AS SOS1 INHIBITOR AND USES THEREOF” (Nanjing Zaiming Pharmaceutical Co., Ltd., priority 2021, dated 2023).)
